Results reported in ChEMBL document CHEMBL5728687, “Diazabicyclic substituted imidazopyrimidines and their use for the treatment of breathing disorders” (2021).

Biological target: Potassium channel subfamily K member 9 (Homo sapiens, UniProt Q9NPC2)
Assay: Inhibition of Recombinant TASK-1 and TASK-3 In Vitro: The investigations on the inhibition of the recombinant TASK-1 and TASK-3 channels were conducted using stably transfected CHO cells. The compounds according to the invention were tested in this case by application of 40 mM potassium chloride in the presence of a voltage-sensitive dye according to the method described in detail in the following references [Whiteaker et al., Validation of FLIPR membrane potential dye for high-throughput screening of potassium channel modulators, J. Biomol. Screen. 6 (5), 305-312 (2001); Molecular Devices FLIPR Application Note: Measuring membrane potential using the FLIPR® membrane potential assay kit on Fluorometric Imaging Plate Reader (FLIPR®) systems, http://www.moleculardevices.com/reagents-supplies/assay-kits/ion-channels/flipr-membrane-potential-assay-kits]. The activity of the test substances was determined as their ability to inhibit a depolarization induced in the recombinant cells by 40 mM potassium chloride. The concentration which can block half of this depolarization is referred to as IC50.
Format: cell-based

Chain of Potassium channel subfamily K member 9 (Q9NPC2 whole entry): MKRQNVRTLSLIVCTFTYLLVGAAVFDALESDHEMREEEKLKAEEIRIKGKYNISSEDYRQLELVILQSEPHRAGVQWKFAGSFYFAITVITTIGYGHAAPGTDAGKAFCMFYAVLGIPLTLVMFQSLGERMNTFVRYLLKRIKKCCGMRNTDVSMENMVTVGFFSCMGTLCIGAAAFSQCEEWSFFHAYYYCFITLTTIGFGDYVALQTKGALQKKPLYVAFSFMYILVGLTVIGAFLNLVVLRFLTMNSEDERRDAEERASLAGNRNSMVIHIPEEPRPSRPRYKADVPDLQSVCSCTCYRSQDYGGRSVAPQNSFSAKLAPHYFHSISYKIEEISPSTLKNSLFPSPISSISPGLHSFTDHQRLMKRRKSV

Structure (SMILES): CNc1cccc(C(=O)N2C3CCC2CN(Cc2c(-c4ccc(Cl)cc4)nc4ncccn24)C3)n1
- IC50: 1500 nM
